Measurements as given in US8217013B2, “Polyene diester antibiotics” (priority 2007, dated 2012).
Like-named read-outs stand apart in the source and are kept apart here.

Experiments:
Assay in all cases: Test of antibacterial activity in vitro (bacteria-inhibition zone)
Type in all cases: cell-based
[1] = test system: Candida albicans; conditions: for zone of inhibition at 5.6 µg/mL: Candida albicans
Source text: (§1) Test of Antibacterial Activity In Vitro
(§2) Experiment drugs: the polyene diester compounds prepared by examples 1-12
(§3) Control drugs: amphotericin B (standard product) • mycostatin (standard product) • natamycin (standard product)
2.1 Preparation of Candida albicans suspension: PHARMACOPOEIA OF THE PEOPLES REPUBLIC OF CHINA, second part, 2005 edition, appendix p 81-84.
(§4) Taking appropriate amount of the above mentioned amphotericin B, mycostatin, natamycin and the polyene diester compounds prepared by examples 1-8 and 10-12, dissolving in a little dimethyl sulfoxide respectively, using pH7 phosphate buffer to dilute into solution which is equivalent to contain amphotericin B, mycostatin, natamycin 280 Units per milliliter, taking 1 ml and using pH7 phosphate buffer to quantitatively dilute into solution which is equivalent to contain amphotericin B 1.4 μg/ml and 2.8 μg/ml, and is equivalent to contain 5.6 μg/ml of mycostatin and natamycin.
(§5) In addition, preparing the solution according to the same method, adding 40% defibered sheep serum, using pH7 phosphate buffer to quantitatively dilute into unit solution which is equivalent to contain amphotericin B 1.4 μg/ml and 2.8 μg/ml, and is equivalent to contain 5.6 μg/ml of mycostatin and natamycin. Testing according to PHARMACOPOEIA OF THE PEOPLES REPUBLIC OF CHINA, second part, 2005 edition, appendix XIA The Antibiotics Microorganism Test.
(§6) Medium: Improved Martin Agar Medium, PHARMACOPOEIA OF THE PEOPLES REPUBLIC OF CHINA, second part, 2005 edition, appendix p 84.
Test method: Double-plate counting method; […] bacteria bed 15 ml to replace the double layers, culture temperature: 37° C., time: 24 h; strain concentration: 1% […]

[2] = test system: Candida mycoderma; conditions: for zone of inhibition at 5.6 µg/mL: 5.6 μg/ml after conversion; for diameter of the bacteria-inhibition zone, Candida mycoderma 0 h / diameter of the bacteria-inhibition zone, Candida mycoderma 6 h / diameter of the bacteria-inhibition zone, Candida mycoderma 24 h / diameter of the bacteria-inhibition zone, Candida mycoderma 48 h: 2.8 μg/ml after conversion
Source text: as §1, §2, §3
2.3 Preparation of Candida mycoderrna suspension: the method is as same as preparation of Saccharomyces cerevisiae suspension
as §4, §5, §6
(§7) Test method: Double-plate counting method; […] bacteria bed 15 ml to replace the double layers, culture temperature: 37° C., time: 24 h; strain concentration: 1%
(§8) Medium: Modified Martin Broth Medium

[3] = test system: Saccharomyces cerevisiae; conditions: for zone of inhibition at 5.6 µg/mL: Saccharomyces cerevisiae, 5.6 μg/ml after conversion; for diameter of the bacteria-inhibition zone, Saccharomyces cerevisiae 0 h / diameter of the bacteria-inhibition zone, Saccharomyces cerevisiae 6 h / diameter of the bacteria-inhibition zone, Saccharomyces cerevisiae 24 h / diameter of the bacteria-inhibition zone, Saccharomyces cerevisiae 48 h: 2.8 μg/ml after conversion
Source text: as §1, §2, §3
2.2 Preparation of Saccharomyces cerevisiae suspension: PHARMACOPOEIA OF THE PEOPLES REPUBLIC OF CHINA, second part, 2005 edition, appendix p 80, p 83.
as §4, §5, §6, §7, §8

[4] = 0 h, 2.8 μg/ml after conversion, no serum
[5] = 0 h, 2.8 μg/ml after conversion, serum added (40% defibered sheep serum)
[6] = 6 h, 2.8 μg/ml after conversion, no serum
[7] = 24 h, 2.8 μg/ml after conversion, no serum
[8] = 48 h, 2.8 μg/ml after conversion, no serum
[9] = 0 h, serum added (40% defibered sheep serum)

Compound | diameter of the bacteria-inhibition zone, Candida albicans 0 h [1, 4] | diameter of the bacteria-inhibition zone, Candida albicans 0 h [1, 5] | diameter of the bacteria-inhibition zone, Candida albicans 6 h [1, 6] | diameter of the bacteria-inhibition zone, Candida albicans 24 h [1, 7] | diameter of the bacteria-inhibition zone, Candida albicans 48 h [1, 8] | diameter of the bacteria-inhibition zone, Candida mycoderma 0 h ([2]; 0 h, no serum) | diameter of the bacteria-inhibition zone, Candida mycoderma 0 h [2, 9] | diameter of the bacteria-inhibition zone, Candida mycoderma 6 h ([2]; 6 h, no serum) | diameter of the bacteria-inhibition zone, Candida mycoderma 24 h ([2]; 24 h, no serum) | diameter of the bacteria-inhibition zone, Candida mycoderma 48 h ([2]; 48 h, no serum) | diameter of the bacteria-inhibition zone, Saccharomyces cerevisiae 0 h ([3]; 0 h, no serum) | diameter of the bacteria-inhibition zone, Saccharomyces cerevisiae 0 h [3, 9] | diameter of the bacteria-inhibition zone, Saccharomyces cerevisiae 6 h ([3]; 6 h, no serum) | diameter of the bacteria-inhibition zone, Saccharomyces cerevisiae 24 h ([3]; 24 h, no serum) | diameter of the bacteria-inhibition zone, Saccharomyces cerevisiae 48 h ([3]; 48 h, no serum) | other results
C[C@@H]1C/C=C/C=C/C=C/C=C/[C@H](O[C@@H]2O[C@H](C)[C@@H](O)[C@H](N)[C@@H]2O)C[C@@H]2O[C@](O)(C[C@@H](O)C[C@H]3O[C@@H]3/C=C/C(=O)O1)C[C@H](O)[C@H]2C(=O)O [Natamycin, natamycin, reference compound] | – | – | – | – | – | – | – | – | – | – | – | – | – | – | – | diameter of the bacteria-inhibition zone, Candida albicans 0 h ([1]; 0 h, 5.6 μg/ml after conversion, serum added (40% defibered sheep serum)): ++ (9-12 mm: ++); diameter of the bacteria-inhibition zone, Candida albicans 6 h ([1]; 6 h, 5.6 μg/ml after conversion, serum added (40% defibered sheep serum)): ++ (9-12 mm: ++); diameter of the bacteria-inhibition zone, Candida albicans 24 h ([1]; 24 h, 5.6 μg/ml after conversion, serum added (40% defibered sheep serum)): ++ (9-12 mm: ++); diameter of the bacteria-inhibition zone, Candida albicans 48 h ([1]; 48 h, 5.6 μg/ml after conversion, serum added (40% defibered sheep serum)): ++ (9-12 mm: ++); zone of inhibition at 5.6 µg/mL ([1]; 0 h, 5.6 μg/ml after conversion, no serum, read-out: diameter of the bacteria-inhibition zone, Candida albicans 0 h): 9 to 12 mm; zone of inhibition at 5.6 µg/mL ([1]; 6 h, 5.6 μg/ml after conversion, no serum, read-out: diameter of the bacteria-inhibition zone, Candida albicans 6 h): 9 to 12 mm; zone of inhibition at 5.6 µg/mL ([1]; 24 h, 5.6 μg/ml after conversion, no serum, read-out: diameter of the bacteria-inhibition zone, Candida albicans 24 h): 9 to 12 mm; zone of inhibition at 5.6 µg/mL ([1]; 48 h, 5.6 μg/ml after conversion, no serum, read-out: diameter of the bacteria-inhibition zone, Candida albicans 48 h): 9 to 12 mm; zone of inhibition at 5.6 µg/mL ([2]; 0 h, no serum, read-out: diameter of the bacteria-inhibition zone, Candida mycoderma 0 h): 12 to 14 mm; zone of inhibition at 5.6 µg/mL ([2]; 6 h, no serum, read-out: diameter of the bacteria-inhibition zone, Candida mycoderma 6 h): 12 to 14 mm; zone of inhibition at 5.6 µg/mL ([2]; 24 h, no serum, read-out: diameter of the bacteria-inhibition zone, Candida mycoderma 24 h): 12 to 14 mm; zone of inhibition at 5.6 µg/mL ([2]; 48 h, no serum, read-out: diameter of the bacteria-inhibition zone, Candida mycoderma 48 h): 12 to 14 mm; zone of inhibition at 5.6 µg/mL ([3]; 0 h, no serum, read-out: diameter of the bacteria-inhibition zone, Saccharomyces cerevisiae 0 h): 14 to 16 mm; zone of inhibition at 5.6 µg/mL ([3]; 0 h, serum added (40% defibered sheep serum), read-out: diameter of the bacteria-inhibition zone, Saccharomyces cerevisiae 0 h): 12 to 14 mm; zone of inhibition at 5.6 µg/mL ([3]; 6 h, no serum, read-out: diameter of the bacteria-inhibition zone, Saccharomyces cerevisiae 6 h): 14 to 16 mm; zone of inhibition at 5.6 µg/mL ([3]; 6 h, serum added (40% defibered sheep serum), read-out: diameter of the bacteria-inhibition zone, Saccharomyces cerevisiae 6 h): 12 to 14 mm; zone of inhibition at 5.6 µg/mL ([3]; 24 h, no serum, read-out: diameter of the bacteria-inhibition zone, Saccharomyces cerevisiae 24 h): 14 to 16 mm; zone of inhibition at 5.6 µg/mL ([3]; 24 h, serum added (40% defibered sheep serum), read-out: diameter of the bacteria-inhibition zone, Saccharomyces cerevisiae 24 h): 12 to 14 mm; zone of inhibition at 5.6 µg/mL ([3]; 48 h, no serum, read-out: diameter of the bacteria-inhibition zone, Saccharomyces cerevisiae 48 h): 14 to 16 mm; zone of inhibition at 5.6 µg/mL ([3]; 48 h, serum added (40% defibered sheep serum), read-out: diameter of the bacteria-inhibition zone, Saccharomyces cerevisiae 48 h): 12 to 14 mm
CC(OC(=O)OC1CCCCC1)OC(=O)C1C(O)CC2(O)CC(O)CC(O)C(O)CCC(O)CC(O)CC(=O)OC(C)C(C)C(O)C(C)C=CC=CC=CC=CC=CC=CC=CC(OC3OC(C)C(O)C(N)C3O)CC1O2 (stereo not drawn) [amphotericin B cyclohexyloxycarbonyloxyethyl ester] | + (7-9 mm: +) | + (7-9 mm: +) | + (7-9 mm: +) | + (7-9 mm: +) | + (7-9 mm: +) | ++ (9-12 mm: ++) | ++ (9-12 mm: ++) | ++ (9-12 mm: ++) | ++ (9-12 mm: ++) | ++ (9-12 mm: ++) | ++ (9-12 mm: ++) | ++ (9-12 mm: ++) | ++ (9-12 mm: ++) | ++ (9-12 mm: ++) | ++ (9-12 mm: ++) | diameter of the bacteria-inhibition zone, Candida albicans 6 h ([1]; 6 h, 2.8 μg/ml after conversion, serum added (40% defibered sheep serum)): ++ (9-12 mm: ++)
CCOC(=O)OC(C)OC(=O)[C@H]1[C@@H]2C[C@@H](OC3OC(C)C(O)C(N)C3O)/C=C/C=C/C=C/C=C/C=C/C=C/C=C/[C@H](C)[C@@H](O)[C@@H](C)[C@H](C)OC(=O)C[C@H](O)C[C@H](O)CC[C@@H](O)[C@H](O)C[C@H](O)C[C@](O)(C[C@@H]1O)O2 (stereo partly drawn) [amphotericin B ethoxycarbonyloxyethyl ester] | – | – | – | – | – | + (7-9 mm: +) | + (7-9 mm: +) | + (7-9 mm: +) | + (7-9 mm: +) | + (7-9 mm: +) | ++ (9-12 mm: ++) | ++ (9-12 mm: ++) | ++ (9-12 mm: ++) | ++ (9-12 mm: ++) | ++ (9-12 mm: ++) | diameter of the bacteria-inhibition zone, Candida mycoderma 6 h ([2]; 6 h, serum added (40% defibered sheep serum)): ++ (9-12 mm: ++)
CC(C)OC(=O)OC(C)OC(=O)C1C(O)CC2(O)CC(O)CC(O)C(O)CCC(O)CC(O)CC(=O)OC(C)C(C)C(O)C(C)C=CC=CC=CC=CC=CC=CC=CC(OC3OC(C)C(O)C(N)C3O)CC1O2 (stereo not drawn) [amphotericin B isopropoxycarbonyloxyethyl ester] | ++ (9-12 mm: ++) | ++ (9-12 mm: ++) | ++ (9-12 mm: ++) | ++ (9-12 mm: ++) | ++ (9-12 mm: ++) | ++ (9-12 mm: ++) | ++ (9-12 mm: ++) | ++ (9-12 mm: ++) | ++ (9-12 mm: ++) | ++ (9-12 mm: ++) | + (7-9 mm: +) | ++ (9-12 mm: ++) | + (7-9 mm: +) | + (7-9 mm: +) | + (7-9 mm: +) | –
amphotericin B ethyl acetate | – | – | – | – | – | ++ (9-12 mm: ++) | ++ (9-12 mm: ++) | ++ (9-12 mm: ++) | ++ (9-12 mm: ++) | ++ (9-12 mm: ++) | + (7-9 mm: +) | ++ (9-12 mm: ++) | + (7-9 mm: +) | + (7-9 mm: +) | + (7-9 mm: +) | –
